Legend:
mouse spleen cells [1] = experiment: IgA production upon LPS stimulation of mouse spleen cells (ELISA of culture supernatant); type: cell-based; details: for IgA concentration (amount of IgA production), mean: BALB/c mouse spleen cells, 5 days culture, supernatant; for Ability to promote IgA production upon LPS stimulation: mouse spleen cells, Student's t test, significance level 5%
Description: (§1) BALB mice (female) of 6 to 8 weeks old were purchased and fed for 1 week for habituation. A commercially available solid feed was used as a feed and tap water was used as water. In order to evaluate influences of cinacalcet and γ-glutamylvaline on antibody producing activity, a culture system using mouse spleen cells was employed. The spleen was collected from BALB-c mice (n=3). The collected spleen cells were washed and thereafter suspended in an RPMI1640 medium (10% FCS, 50 U/ml penicillin, and 50 μg/ml streptomycin). To cells adjusted to 1×10^6 per a 48 well culture plate, cinacalcet or γ-glutamylvaline (dissolved in a sterilized phosphate buffer), or a phosphate buffer as a control was added. And the cells were then stimulated with 5 μg of LPS (lipopolysaccharide, obtained from Sigma). Thereafter, the cells were cultured in a CO2 incubator at 37° C. for 5 days and the amount of IgA antibody in the supernatant was analyzed.
(§2) The amounts of IgA and IgG were measured by the ELISA method. The method for measuring IgG is shown below. 100 μl of rat anti-mouse IgG antibody (Calbiochem, 1 μg/ml in 50 mM sodium carbonate buffer, pH 8.5) solution was added to a 96 well ELISA plate and the plate was incubated at 4° C. overnight to coat each well with the anti-mouse IgG antibody. The plate was washed three times with PBST (phosphate buffered saline, 0.05% Tween 20) and subjected to a blocking treatment with 200 μl of PBS solution containing 2% BSA at 37° C. for 1 hr.
(§3) The plate was washed three times with PBST. Thereafter, 100 μl of the culture supernatant (9 fold diluted with PBST containing 1% BSA) was added and allowed to react at 37° C. for 2 hr. The plate was again washed four times with PBST. 100 μl of an alkaline phosphatase-conjugated anti-mouse IgG (rabbit) (BD Biosciences) solution diluted 2000 fold with PBST containing 1% BSA was added and allowed to react at 37° C. for 1 hour. The plate was washed six times and then colored with p-nitrophenyl phosphate. The reaction was terminated with 100 μl/well of 3 M NaOH and the absorbance at 405 nm was measured.
The measurement of IgA was carried out in accordance with the method for IgG except that a rat anti-mouse IgA antibody (BD Biosciences) was used as the immobilized antibody, a biotinylated anti-mouse IgA antibody (rat) (BD Biosciences) was used as the labeled antibody, 3,3′,5,5′-tetramethylbenzidine solution (TMB substrate-developing solution, Sigma) was used as the chromogenic substrate, termination of the coloring was carried out using 1 M sulfuric acid, and the absorbance at 450 nm was measured.
(§4) A statistical analysis was carried out by Student's t test and a significance level of 5% or less was considered as significant difference.

mouse spleen cells [2] = experiment: IgG production upon ConA stimulation of mouse spleen cells (ELISA of culture supernatant); type: cell-based; details: for IgG concentration (amount of IgG production), mean: BALB/c mouse spleen cells, 5 days culture, supernatant; for Ability to promote IgG production upon ConA stimulation: mouse spleen cells, Student's t test, significance level 5%
Description: as §1
In the same manner, the cells adjusted to 1×10^6 per a 48 well culture plate were, in the presence or absence of cinacalcet or γ-glutamylvaline, stimulated with 0.5 μg of ConA (concanavalin A). Thereafter, the cells were cultured in a CO2 incubator at 37° C. for 5 days and the amount of IgG antibody in the supernatant was analyzed.
as §2, §3, §4

Structure (SMILES)	IgA concentration (amount of IgA production), mean (mouse spleen cells [1]; LPS stimulation + test substance 0.1 μM)	Ability to promote IgA production upon LPS stimulation (mouse spleen cells [1])	IgG concentration (amount of IgG production), mean (mouse spleen cells [2]; ConA stimulation + test substance 0.1 μM)	Ability to promote IgG production upon ConA stimulation (mouse spleen cells [2])	IgA concentration (amount of IgA production), mean (mouse spleen cells [1]; LPS stimulation + test substance 0.1 mM)	IgG concentration (amount of IgG production), mean (mouse spleen cells [2]; ConA stimulation + test substance 0.1 mM)
C[C@@H](NCCCc1cccc(C(F)(F)F)c1)c1cccc2ccccc12 [Cinacalcet, (R)—N-(3-(3-(trifluoromethyl)phenyl)propyl)-1-(1-naphthyl)ethylamine]	26.09 ng/mL	significantly confirmed	55.24 ng/mL	significantly confirmed	–	–
CC(C)[C@H](NC(=O)CC[C@H](N)C(=O)O)C(=O)O [γ-GluVal, γ-glutamylvaline]	–	significantly confirmed	–	significantly confirmed	25.28 ng/mL	62.78 ng/mL

Source: patent US20110070270A1, “IMMUNOSTIMULATING AGENT” (priority 2008, published 2011)
